The results in this text go back to patent publication US20250059159A1, “PLPRO INHIBITORS” (SHANGHAI SYNERGY PHARMACEUTICAL SCIENCES CO., LTD., priority 2021, published 2025).

In general, IC50 refers to the midpoint of a concentration-inhibition curve.

Bounds are passed on as bounds.

The target in this experiment is SARS-CoV-2 PLpro (Severe acute respiratory syndrome coronavirus 2 (2019-nCoV) (SARS-CoV-2), UniProt P0DTD1). Put plainly: PLpro enzymatic inhibition assay (IC50 value determination). The class given is biochemical. The settings on record: 60 min preincubation for covalent inhibitors, 10 min for non-covalent, read-out: Inhibition of SARS-CoV-2 PLpro IC50 range.

Turning to `C#CCNC(=O)CNC(=O)CN(C1CCN(C2(c3cccc4ccccc34)CC2)CC1)S(C)(=O)=O` [Compound 105, 2-(N-(1-(1-(naphthalen-1-yl)cyclopropyl)piperidin-4-yl)methylsulfonamido)-N-(2-oxo-2-(prop-2-yn-1-ylamino)ethyl)acetamide], the concentration for half-maximal inhibition (IC50) lay in the range of 1000 to 10000 nM. Consider `C#CCNC(=O)CNC(=O)CN(C1CCN([C@@H](C)c2cccc3ccccc23)CC1)S(C)(=O)=O` [Compound 89, (S)-2-(N-(1-(1-(naphthalen-1-yl)ethyl)piperidin-4-yl)methylsulfonamido)-N-(2-oxo-2-(prop-2-yn-1-ylamino)ethyl)acetamide], for which the IC50 was below 100 nM.

Turning to `C#CCNC(=O)CNC(=O)CN(C1CCN(C(c2cccc3ccccc23)C(F)(F)F)CC1)S(C)(=O)=O` (stereo not drawn) [Compound 100, N-(2-oxo-2-(prop-2-yn-1-ylamino)ethyl)-2-(N-(1-(2,2,2-trifluoro-1-(naphthalen-1-yl)ethyl)piperidin-4-yl)methylsulfonamido)acetamide], the IC50 fell in the range of 100 to 1000 nM.

Consider `COC(=O)/C=C/CNC(=O)CNC(=O)[C@@H](C)NC1CCN([C@H](C)c2cccc3ccccc23)CC1` [Compound 28, methyl (E)-4-(2-((R)-2-((1-((R)-1-(naphthalen-1-yl)ethyl)piperidin-4-yl)amino)propanamido)acetamido)but-2-enoate], for which the IC50 was in the range of 1000 to 10000 nM. `C#CCNC(=O)CNC(=O)CN(C1CCN(c2nc3ccccc3s2)CC1)S(C)(=O)=O` [Compound 119, 2-(N-(1-(benzo[d]thiazol-2-yl)piperidin-4-yl)methylsulfonamido)-N-(2-oxo-2-(prop-2-yn-1-ylamino)ethyl)acetamide]: the IC50 lay within 100 to 1000 nM. On to `C#CCNC(=O)CNC(=O)CN(C1CCN(C(C)c2cccc3ccccc23)CC1)S(=O)(=O)CCC(=O)OC` (stereo not drawn) [Compound 131, methyl 3-(N-(1-(1-(naphthalen-1-yl)ethyl)piperidin-4-yl)-N-(2-oxo-2-((2-oxo-2-(prop-2-yn-1-ylamino)ethyl)amino)ethyl)sulfamoyl)propanoate], for which the IC50 was below 100 nM.

For `C#CC(C)(C)CNC(=O)CNC(=O)CN(C1CCN(C(C)c2cccc3ccccc23)CC1)S(C)(=O)=O` (stereo not drawn) [Compound 156, N-(2,2-dimethylbut-3-yn-1-yl)-2-(2-(N-(1-(1-(naphthalen-1-yl)ethyl)piperidin-4-yl)methylsulfonamido)acetamido)acetamide], the IC50 lay within 1000 to 10000 nM. As to `COC(=O)/C=C/CNC(=O)CNC(=O)CN(C(=O)C1CCCC1)C1CCN([C@H](C)c2cccc3ccccc23)CC1` [Compound 10, methyl (R,E)-4-(2-(2-(N-(1-(1-(naphthalen-1-yl)ethyl)piperidin-4-yl)cyclopentanecarboxamido)acetamido)acetamido)but-2-enoate], the IC50 was 100 to 1000 nM.

Take `C#CCNC(=O)CNC(=O)CN(C1CCN(C(C)c2cccc(-c3cccs3)c2)CC1)S(C)(=O)=O` (stereo not drawn) [Compound 141, N-(2-oxo-2-(prop-2-yn-1-ylamino)ethyl)-2-(N-(1-(1-(3-(thiophen-2-yl)phenyl)ethyl)piperidin-4-yl)methylsulfonamido)acetamide]: the IC50 lay within 100 to 1000 nM. Regarding `C#CCNC(=O)CNC(=O)CN(C1CCN([C@H](C)c2cccc3ccccc23)CC1F)S(C)(=O)=O` (stereo partly drawn) [Compound 93, 2-(N-(3-fluoro-1-((R)-1-(naphthalen-1-yl)ethyl)piperidin-4-yl)methylsulfonamido)-N-(2-oxo-2-(prop-2-yn-1-ylamino)ethyl)acetamide], the half-maximal inhibitory concentration (IC50) lay in the range of 100 to 1000 nM. As for `C#CCNC(=O)CNC(=O)CN(C1CCN([C@H](C)c2cccc3ccccc23)CC1)S(=O)(=O)CCC(N)=O` [Compound 133, (R)-3-(N-(1-(1-(naphthalen-1-yl)ethyl)piperidin-4-yl)-N-(2-oxo-2-((2-oxo-2-(prop-2-yn-1-ylamino)ethyl)amino)ethyl)sulfamoyl)propanamide], the figure is below 100 nM; as for `COC(=O)/C=C/CNC(=O)CNC(=O)CN(C(C)=O)C1CCN(C(C)c2cccc3ccccc23)CC1` (stereo not drawn) [Compound 13, methyl (E)-4-(2-(2-(N-(1-(1-(naphthalen-1-yl)ethyl)piperidin-4-yl)acetamido)acetamido)acetamido)but-2-enoate], below 100 nM; as for `C#CCNC(=S)CNC(=O)CN(C1CCN(C(C)c2cccc3ccccc23)CC1)S(C)(=O)=O` (stereo not drawn) [Compound 164, 2-(N-(1-(1-(naphthalen-1-yl)ethyl)piperidin-4-yl)methylsulfonamido)-N-(2-(prop-2-yn-1-ylamino)-2-thioxoethyl)acetamide], below 100 nM.

With `C#CCNC(=O)CNC(=O)CN(C1CCN(C(C)c2cccc3cccnc23)CC1)S(C)(=O)=O` (stereo not drawn) [Compound 82, N-(2-oxo-2-(prop-2-yn-1-ylamino)ethyl)-2-(N-(1-(1-(quinolin-8-yl)ethyl)piperidin-4-yl)methylsulfonamido)acetamide], the IC50 lay in the range of 100 to 1000 nM. For `C#CC(C)NC(=O)CNC(=O)CN(C1CCN([C@H](C)c2cccc3ccccc23)CC1)S(C)(=O)=O` (stereo partly drawn) [Compound 128, N-(but-3-yn-2-yl)-2-(2-(N-(1-((R)-1-(naphthalen-1-yl)ethyl)piperidin-4-yl)methylsulfonamido)acetamido)acetamide], the IC50 lay in the range of 1000 to 10000 nM.

Regarding `C#CCNC(=O)CNC(=O)CN(C1CCN(C(C)c2ccnc3ccccc23)CC1)S(C)(=O)=O` (stereo not drawn) [Compound 85, N-(2-oxo-2-(prop-2-yn-1-ylamino)ethyl)-2-(N-(1-(1-(quinolin-4-yl)ethyl)piperidin-4-yl)methylsulfonamido)acetamide], the IC50 was 100 to 1000 nM. For the molecule `C#CCNC(=O)CNC(=O)CN(C1CCN(C(C)c2cccc(Cl)c2Cl)CC1)S(C)(=O)=O` (stereo not drawn) [Compound 94, 2-(N-(1-(1-(2,3-dichlorophenyl)ethyl)piperidin-4-yl)methylsulfonamido)-N-(2-oxo-2-(prop-2-yn-1-ylamino)ethyl)acetamide], the IC50 lay in the range of 100 to 1000 nM. Take `C#CCNC(=O)CNC(=O)CN(C1CCN(C(C)c2cccc(-c3ccccc3)c2)CC1)S(C)(=O)=O` (stereo not drawn) [Compound 112, 2-(N-(1-(1-([1,1′-biphenyl]-3-yl)ethyl)piperidin-4-yl)methylsulfonamido)-N-(2-oxo-2-(prop-2-yn-1-ylamino)ethyl)acetamide]: the IC50 fell in the range of 100 to 1000 nM. In the case of `COC(=O)/C=C/CNC(=O)CNC(=O)CN(C(=O)CC(F)(F)F)C1CCN(C(C)c2cccc3ccccc23)CC1` (stereo not drawn) [Compound 16, methyl (E)-4-(2-(2-(3,3,3-trifluoro-N-(1-(1-(naphthalen-1-yl)ethyl)piperidin-4-yl)propanamido)acetamido)acetamido)but-2-enoate] it was 100 to 1000 nM; in that of `COC(=O)/C=C/CNC(=O)CNC(=O)CN(C1CCN([C@H](C)c2cccc3ccccc23)CC1)S(=O)(=O)NC(=O)OC(C)(C)C` [Compound 23, methyl (R,E)-4-(2-(2-((N-(tert-butoxycarbonyl)sulfamoyl)(1-(1-(naphthalen-1-yl)ethyl)piperidin-4-yl)amino)acetamido)acetamido)but-2-enoate], 100 to 1000 nM; in that of `C#CCNC(=O)CNC(=O)CN(C1CCN(C(C)c2cccc3ccccc23)CC1)S(=O)(=O)N1CCCC1` (stereo not drawn) [Compound 98, 2-(N-(1-(1-(naphthalen-1-yl)ethyl)piperidin-4-yl)pyrrolidine-1-sulfonamido)-N-(2-oxo-2-(prop-2-yn-1-ylamino)ethyl)acetamide], below 100 nM.
